Reference: patent publication US12448383B2, “Compounds and methods for treatment of viral infections” (priority 2022, dated 2025)

What was measured:
[1] = CC50 MT4 cytotoxicity (Cell-Titer Glo); assay type: cell-based; settings: human
Description: Cytotoxicity of the compounds was determined in uninfected cells using the cell viability reagent in a similar fashion as described before for other cell types (Cihlar et al., Antimicrob Agents Chemother. 2008, 52(2):655-65). HEp-2 (1.5×10^3 cells/well) and MT-4 (2×10^3 cells/well) cells were plated in 384-well plates and incubated with the appropriate medium containing 3-fold serially diluted compound ranging from 15 nM to 100,000 nM. Cells were cultured for 4-5 days at 37° C. Following the incubation, the cells were allowed to equilibrate to 25° C., and cell viability was determined by adding Cell-Titer Glo viability reagent. The mixture was incubated for 10 min, and the luminescence signal was quantified using an Envision plate reader. Untreated cell and cells treated at 2 μM puromycin (Sigma, St. Louis, MO) serve as 100% and 0% cell viability control, respectively. The percent of cell viability was calculated for each tested compound concentration relative to the 0% and 100% controls and the CCso value was determined by non-linear regression as a compound concentration reducing the cell viability by 50%.

[2] = test system: Respiratory syncytial virus recombinant with luciferase (RSV-Luc5) in HEp-2 cells; test: microbe, parasite or virus in culture; assay type: cell-based; settings: human respiratory syncytial virus, HEp-2, 72 h, read-out: RSV Hep2 EC50
[3] = test system: Respiratory syncytial virus recombinant with luciferase (RSV-Luc5) in Normal Human Bronchial Epithelial (NHBE) cells; test: microbe, parasite or virus in culture; assay type: cell-based; settings: 72 h, read-out: RSV NHBE EC50
[4] = test system: SARS Coronavirus 2 recombinant with NanoLuc (SARS-CoV2-NLuc) in A549-hACE2 cells; test: organism not typed; assay type: cell-based; settings: 48 h; read-out: SARS-CoV2 EC50
[5] = Plasma stability; assay type: in vitro ADME; parameters: unit not given here; settings: 37° C., 2 μM substrate
Description: At 0.05, 0.5, 1, 2, 3 and 4 hr, […] aliquots of the reaction mixture were transferred to plates containing […] of IS/Q quenching solution. After quenching, the plates were centrifuged at 3000 g for 30 minutes, and 150 μL supernatant was diluted with 150 μL water. Aliquots ([…]) of the diluted supernatant were analyzed on a Thermo Q-Exactive mass spectrometer as described below.
Mobile phase A consisted of 0.1% (v/v) formic acid in water. Mobile phase B consisted of 0.1% (v/v) formic acid in acetonitrile. Elution of analytes was achieved by a series of linear gradients of acetonitrile in water containing 0.1°(v/v) formic acid. The mass spectrometer was calibrated on a weekly basis and mass tolerance of 5 ppm was used.

[6] = test system: Caco-2 cells (clone C2BBe1); test: CACO-2 permeability; assay type: in vitro ADME; parameters: unit not given here; settings: for DM Caco2 A to B: apical to basolateral, donor pH 6.5, receiver pH 7.4; for DM Caco2 B to A: basolateral to apical
Description: Pre-plated Caco-2 cells (clone C2BBel) were obtained from Sigma-Aldrich, Inc. (Atlanta, GA). Cell monolayers were grown to confluence on collagen-coated, microporous, polycarbonate membranes in 24-well transwell plates for 21 days. The permeability assay buffer in donor wells was Hanks' balanced salt solution (HBSS) containing 10 mM HEPES and 15 mM glucose at a pH of 6.5 containing 200 μM BNPP. The receiver wells used HBSS buffer containing 10 mM HEPES and 15 mM glucose at a pH of 7.4 and supplemented with 1°% BSA. After an initial equilibration with transport buffer, TEER values were read to test membrane integrity. The experiment was started by the addition of buffers containing test compounds, 200 μl and 1000 μl in the apical and basolateral chamber, respectively. At 0- and 2-hour post dose, 10 μL was sampled from donor compartment and was immediately diluted in 190 μL of 20% methanol. At 1 and 2 hours post dose, 100 μl of solution was taken from the receiver compartments and was immediately diluted in 100 μl of 20% methanol. Removed buffer was replaced with fresh buffer and a correction was applied to all calculations for the removed material. Each compound was tested in 2 separate replicate wells for each condition. All samples were then extracted with 400 μl 100% acetonitrile with internal standard to precipitate protein. Cells were dosed on the apical or basolateral side to determine forward (A to B) and reverse (B to A) permeability. To test for non-specific binding and compound instability, the total amount of drug was quantitated at the end of the experiment and compared to the material present in the original dosing solution as a percent recovery. […] Samples were analyzed by LC-MS/MS.

[7] = GI S9 stability - no PMSF; assay type: in vitro ADME; settings: pH 7.4; human intestinal S9, PMSF-free; read-out: GIS9-HUMAN-NoPMSF T1/2
Description: Duplicate aliquots of test compound or positive control substrate (GS-7340) were added to S9 stock diluted with 100 mM phosphate buffered saline, pH 7.4, to obtain a protein concentration of 1.0 mg/mL. The S9 metabolic reactions were initiated by the addition of the substrates to the S9 reaction mixture to a final concentration of 2 μM. At 0, 10, 20, 30, 60 and 120 min, […] aliquots of the reaction mixture were transferred to plates containing […] of IS/Q solution. After quenching, the plates were centrifuged at 3000 g for 30 minutes, and 150 μL aliquots of each supernatant were diluted with 150 μL water. Aliquots ([…]) of the diluted supernatant were analyzed on a Thermo Q-Exactive mass spectrometer as described below. GI S9 Stability—No phenylmethylsulfonyl fluoride (PMSF): Similar to the procedure described above, test compounds were incubated at 2 μM with 1 mg/mL PMSF-free Intestinal S9 fractions. Samples are removed at 6 time points over the course of a 120 min experiment and the parent compound disappreance and reference compound A formation is determined by mass spectrometry.
Example K: Liquid Chromatography/Mass Spectroscopy Methods for S9 and Plasma Stability
Quantification of test compounds, Reference Compound A (S9 stability assay nucleoside metabolite), and controls was performed by analyte/internal standard peak area ratio (PAR) values measured on a Thermo Q-Exactive mass spectrometer coupled to a Dionex UltiMate 3000 HPLC with a Leap Technologies HTC PAL autosampler. The column used for analysis of test compounds and Reference Compound A was a Waters Acquity BEH C18 ([…] particle size, 2.1′50 mm). The column used for control (GS-7340) was a Thermo Hypersil GOLD ([…] particle size, 2.1′50 mm). Mobile phase A consisted of 0.1% (v/v) formic acid in water. Mobile phase B consisted of 0.1% (v/v) formic acid in acetonitrile. Elution of analytes was achieved by a series of linear gradients of acetonitrile in water containing 0.1°(v/v) formic acid. The mass spectrometer was calibrated on a weekly basis and mass tolerance of 5 ppm was used.

Row | SMILES | CC50 [1] [µM] | EC50 [2] [µM] | EC50 [3] [µM] | EC50 [4] [µM] | STA Human Plasma 37 [5] | DM Caco2 A to B [6] | DM Caco2 B to A [6] | half-life at 2 µM [7] [min]
1 | CC(C)COC(=O)OC[C@H]1O[C@@](C#N)(c2ccc3c(N)ncnn23)[C@@H]2OC(=O)O[C@@H]21 [Compound 17, ((3aR,4R,6R,6aR)-6-(4-aminopyrrolo[2,1-f][1,2,4]triazin-7-yl)-6-cyano-2-oxotetrahydrofuro[3,4-d][1,3]dioxol-4-yl)methyl isobutyl carbonate] | > 50 | 0.412 | 1.9 | 0.814 | – | – | – | –
2 | CC(C)OC(=O)OC[C@H]1O[C@@](C#N)(c2ccc3c(NC(=O)OC(C)(C)C)ncnn23)[C@H](OC(=O)OC(C)C)[C@@H]1OC(=O)OC(C)C [Compound 80, tert-butyl (7-((2R,3R,4R,5R)-2-cyano-3,4-bis((isopropoxycarbonyl)oxy)-5-(((isopropoxycarbonyl)oxy)methyl)tetrahydrofuran-2-yl)pyrrolo[2,1-f][1,2,4]triazin-4-yl)carbamate] | > 50 | – | 2.04 | > 50 | 604.23 | 1.35 | 0.95 | 0.847
3 | Cc1ccc(C(C)C)c(OC(=O)OC[C@H]2O[C@@](C#N)(c3ccc4c(N)ncnn34)[C@H](O)[C@@H]2O)c1 [Compound 82, ((2R,3S,4R,5R)-5-(4-aminopyrrolo[2,1-f][1,2,4]triazin-7-yl)-5-cyano-3,4-dihydroxytetrahydrofuran-2-yl)methyl (2-isopropyl-5-methylphenyl) carbonate] | > 50 | – | 2.41 | 1.55 | 193.22 | 2.73 | 20.67 | 2
4 | CC(C)[C@@H]1CC[C@@H](C)C[C@H]1OC(=O)OC[C@H]1O[C@@](C#N)(c2ccc3c(N)ncnn23)[C@H](O)[C@@H]1O [Compound 83, ((2R,3S,4R,5R)-5-(4-aminopyrrolo[2,1-f][1,2,4]triazin-7-yl)-5-cyano-3,4-dihydroxytetrahydrofuran-2-yl)methyl ((1R,2S,5R)-2-isopropyl-5-methylcyclohexyl) carbonate] | 21 | – | 2.32 | 24.5 | 1584 | 5.3 | 25.42 | 12.1
5 | CC(C)OC(=O)OC[C@H]1O[C@@](C#N)(c2ccc3c(N)ncnn23)[C@@H]2OC(c3ccccc3)O[C@@H]21 (stereo partly drawn) [Compound 100, [(3aR,4R,6R,6aR)-4-(4-aminopyrrolo[2,1-f][1,2,4]triazin-7-yl)-4-cyano-2-phenyl-6,6a-dihydro-3aH-furo[3,4-d][1,3]dioxol-6-yl]methyl isopropyl carbonate] | > 50 | > 50 | 16 | – | – | 11.73 | 22.71 | –
6 | CC(C)OC(=O)OC[C@H]1O[C@@](C#N)(c2ccc3c(N)ncnn23)[C@H](O)[C@@H]1OC(=O)CCCCCCC(=O)O [Compound 130, 8-(((2R,3S,4R,5R)-5-(4-aminopyrrolo[2,1-f][1,2,4]triazin-7-yl)-5-cyano-4-hydroxy-2-(((isopropoxycarbonyl)oxy)methyl)tetrahydrofuran-3-yl)oxy)-8-oxooctanoic acid] | > 50 | – | 2.96 | 9.04 | 409.28 | 0.12 | 2.54 | 1.59
7 | CCOC(=O)OC[C@H]1O[C@@](C#N)(c2ccc3c(NC(=O)OCc4ccccc4)ncnn23)[C@H](O)[C@@H]1O [Compound 131, benzyl (7-((2R,3R,4S,5R)-2-cyano-5-(((ethoxycarbonyl)oxy)methyl)-3,4-dihydroxytetrahydrofuran-2-yl)pyrrolo[2,1-f][1,2,4]triazin-4-yl)carbamate] | > 50 | – | 4.79 | 8.26 | 150.92 | 2.01 | 15.52 | 2.64
8 | CCOC(=O)OC[C@H]1O[C@@](C#N)(c2ccc3c(N)ncnn23)[C@@H]2OC(CC)O[C@@H]21 (stereo partly drawn) [Compound 132, ((3aR,4R,6R,6aR)-6-(4-aminopyrrolo[2,1-f][1,2,4]triazin-7-yl)-6-cyano-2-ethyltetrahydrofuro[3,4-d][1,3]dioxol-4-yl)methyl ethyl carbonate] | > 50 | – | > 50 | > 50 | 12.304 | 12.34 | 13.86 | 0.624
9 | COC(=O)O[C@H]1[C@@H](OC(=O)OC)[C@](C#N)(c2ccc3c(N)ncnn23)O[C@@H]1COC(=O)OC(C)C [Compound 135, (2R,3R,4R,5R)-2-(4-aminopyrrolo[2,1-f][1,2,4]triazin-7-yl)-2-cyano-5-(((isopropoxycarbonyl)oxy)methyl)tetrahydrofuran-3,4-diyl dimethyl bis(carbonate)] | > 50 | – | > 50 | > 50 | 96.462 | 3.87 | 18.05 | 0.653
10 | C=CCCOC(=O)O[C@H]1[C@@H](OC(=O)OCCC=C)[C@](C#N)(c2ccc3c(N)ncnn23)O[C@@H]1COC(=O)OC(C)C [Compound 136, (2R,3R,4R,5R)-2-(4-aminopyrrolo[2,1-f][1,2,4]triazin-7-yl)-2-cyano-5-(((isopropoxycarbonyl)oxy)methyl)tetrahydrofuran-3,4-diyl di(but-3-en-1-yl) bis(carbonate)] | > 50 | – | 2.03 | 4.7 | 463.08 | 4.33 | 5.7 | 1.01
